In patent EP3015165A1, “MATERIAL AND METHOD FOR CAPTURING, DETECTING AND Q[…] SULPHUR COMPOUNDS” (priority 2014, dated 2016):
Converted amounts (≈) assume the structure as drawn.

Legend:
[1] = cited from earlier work
[2] = couples H2S/HS^- et CH3SH/CH3S^-; cited from earlier work
[3] = [gas]/[liq], grandeur sans dimension; cited from earlier work
[4] = Solubility limit in ethanol; assay type: physicochemical; conditions: organic solvent or mixture, éthanol, read-out: limite de solubilité dans l'éthanol
Experimental: Le TMOS et l'éthanol sont mélangés dans un premier temps. Puis le volume désiré de DMPD à 0,5 M dans l'eau est introduit, suivi du volume désiré de FeCl3 à 0,5 M dans 0,267 M HCl. La quantité d'eau restante pour atteindre 1,44 mL suit l'ajout d'HCl provoquant un échauffement du sol qui est agité le temps de refroidir. Pour les formulations fortement dopées en DMPD, il est nécessaire de dissoudre la DMPD dans l'éthanol plutôt que dans l'eau. La limite de solubilité de la DMPD dans l'éthanol est de 21 mM.

[5] = Stability of the probe in solution as a function of pH; assay type: physicochemical; conditions: milieu basique, from pH 9 the disulphide bridge breaks by itself in a few hours
Description: (§1) Or, en milieu acide, les VSC modèles, à savoir le sulfure d'hydrogène et le méthanethiol, sont peu solubles. La présente étude a donc été menée en solution à pH neutre et, par conséquent sur les formes déprotonées Na2S et (CH3)SNa des deux VSC modèles.

[6] = Kinetics of the probe-target reaction in aqueous solution at neutral pH; conditions: pH=7,4, target 50 µM and DTNB 5 µM (Figure 2A)
Experimental: as §1
Cette étude a montré que la cinétique de la réaction est suffisamment rapide pour envisager de l'employer dans un xérogel comme réaction de transduction : en moins de 5 min, l'équilibre est atteint (Figure 2A). On peut remarquer également que la réaction de détection du (CH3)SNa est moins rapide que celle de Na2S, avec en outre un moins bon rendement.

[7] = exposition prolongée à forte concentration; cited from earlier work

For `CS` [CH3SH, méthanethiol], the “solubilité dans l'eau” value [1] is listed as 0,48 mol.L^-1, the pKa [2] is listed as 12,0 and the “constante de Henry Hcc” value [3] is listed as 1,23.10^-1.

In the case of `CN(C)c1ccc(N)cc1` [DMPD, N,N-diméthylparaphénylènediamine], the solubility [4] is reported as 21 mM (≈ 2860 µg/mL).

In the case of `O=C(O)c1cc(SSc2ccc([N+](=O)[O-])c(C(=O)O)c2)ccc1[N+](=O)[O-]` [DTNB, acide 5,5'-dithiobis(2-nitrobenzoïque)], the stability in solution [5] is reported as “n'est pas stable” and the “time to reach equilibrium of the reaction” value [6] is reported as < 5 min.

For `S` [H2S, sulfure d'hydrogène], the “concentration causing paralysie du nerf olfactif” value [7] is given as 100 à 150 ppm, the pKa [2] is given as 7,0 and the “constante de Henry Hcc” value [3] is given as 4,09.10^-1.
